This passage reports EC50 results from PMC11370357 (bioRxiv, 2024).

pEC50: −log10 of the molar value.

The assay concerns the target T1, GPRC6A (Homo sapiens, UniProt Q5T6X5).
T1 sequence (Q5T6X5 19-926): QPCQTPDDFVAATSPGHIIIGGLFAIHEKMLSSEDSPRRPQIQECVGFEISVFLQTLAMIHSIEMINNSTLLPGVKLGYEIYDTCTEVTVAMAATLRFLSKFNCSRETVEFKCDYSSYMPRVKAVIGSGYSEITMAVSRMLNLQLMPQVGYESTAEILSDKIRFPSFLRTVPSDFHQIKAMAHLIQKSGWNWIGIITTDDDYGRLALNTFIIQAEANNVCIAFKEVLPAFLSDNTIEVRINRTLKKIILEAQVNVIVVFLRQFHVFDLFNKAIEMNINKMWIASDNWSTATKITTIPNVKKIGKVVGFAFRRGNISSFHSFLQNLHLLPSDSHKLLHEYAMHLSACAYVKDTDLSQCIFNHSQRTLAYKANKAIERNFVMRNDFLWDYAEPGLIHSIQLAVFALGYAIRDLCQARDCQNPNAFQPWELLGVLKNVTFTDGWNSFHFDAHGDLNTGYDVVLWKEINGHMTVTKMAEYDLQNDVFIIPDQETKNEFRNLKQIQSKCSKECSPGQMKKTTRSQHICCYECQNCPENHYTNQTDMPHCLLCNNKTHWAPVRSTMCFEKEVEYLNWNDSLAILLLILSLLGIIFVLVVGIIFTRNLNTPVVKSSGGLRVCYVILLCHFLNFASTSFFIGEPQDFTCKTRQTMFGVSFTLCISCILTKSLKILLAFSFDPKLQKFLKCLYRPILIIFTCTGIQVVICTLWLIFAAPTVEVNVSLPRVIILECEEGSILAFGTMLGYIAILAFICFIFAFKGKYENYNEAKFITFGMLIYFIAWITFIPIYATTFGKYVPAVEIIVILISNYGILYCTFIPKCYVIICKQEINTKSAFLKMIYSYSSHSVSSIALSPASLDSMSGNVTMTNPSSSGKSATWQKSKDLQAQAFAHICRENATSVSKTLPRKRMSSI
The class given is cell-based.

Compound `CN(C)C(=N)N=C(N)N` [metformin, 1,1-dimethylbiguanide] had a pEC50 of 3.55.

One may read the pEC50 as the negative decadic logarithm of the EC50, by convention in mol/L.
